Results as given in US10426850B2, “Collagen mimetic peptides for targeting collagen strands for in vitro and in vivo imaging and therapeutic use” (The Johns Hopkins University, priority 2011, dated 2019).

Tests used:
[1] = test system: fibronectin and laminin; assay: SDS-PAGE staining by heat activated fluorescent CMP, other ECM proteins; type: binding, bovine (fibronectin), murine (laminin); conditions: 6 μM, 2 μg protein per lane
Description: Acid soluble rat-tail type I collagen, bovine type II collagen, and mouse type IV collagen were purchased from BD Bioscience (San Jose, Calif.). Complement component C1q from human serum, fibronectin from bovine plasma, and laminin from Engelbreth-Holm-Swarm murine sarcoma basement membrane were purchased from Sigma-Aldrich. ProMMP-1, and p-aminophenylmercuric acetate were acquired from EMD millipore. Human umbilical vein endothelial cells (HUVECs) and EGM-2 cell growth media were obtained from Lonza (Walkersville, Md.). Precast NuPAGE® Novex 4-12% Bis-Tris Gel (1.0 mm, 12 well), Novex® Sharp unstained protein standard, and SDS-PAGE running buffer, sample buffer, and other SDS-PAGE reagents were purchased from Life Technologies.
SDS-PAGE staining and imaging. Proteins were resolved on NuPAGE® Novex 4-12% bis-tris gels under denaturating conditions using an XCell SureLock™ Mini-Cell electrophoresis system (Life Technologies). NuPAGE® MOPS SDS running buffer containing 50 mM MOPS, 50 mM Tris Base, 0.1% SDS, and 1 mM EDTA (pH 7.7) was used. […] The fluorescence intensities of the protein bands were quantified using GE ImageQuant™ TL software. After fluorescence imaging, all gels were further stained with coomassie brilliant blue (CB) G-250 (Bio-Rad) for 2-3 hr followed by washing, and imaging under white light illumination using a Gel Doc EQ system (BioRad).

[2] = test system: collagens in fixed tissue sections (skin, cornea, bone); assay: Immunohistochemistry of fixed tissue sections with UV-activated caged CMP; parameters: species or system mouse; conditions: UV-activated on tissue
Description: For immunohistochemical staining, anti-collagen I antibody was purchased from Abcam (ab292, Cambridge, Mass.); bovine serum albumin (BSA), goat serum, and Triton X-100 were purchased from Sigma-Aldrich; DAPI was obtained from Roche Applied Science (Indianapolis, Ind.); Alexa Fluor® 594 F(ab′)2 fragment of goat anti-rabbit IgG and Prolong® Gold antifade reagent were purchased from Life Technologies. The skin and cornea tissues were harvested from a 23 month-old wild-type C57BL/6 mouse. The tissues were fixed with 4% paraformaldehyde in PBS solution (pH 7.4) for 1 hour and cryopreserved in Tissue-Tek O.C.T. medium (Sakura Finetek, Torrance, Calif.). Cryosections of 8 μm thickness were obtained and mounted onto charged glass slides. Paraffin embedded mouse bone sections were a kind gift from Dr. Catherine Foss and Dr. Collin Torok at Johns Hopkins University School of Medicine. The leg containing the tibia bone was harvested from a 12-week-old female athymic nu/nu mouse. The muscle tissues were manually trimmed, and the bone was fixed in 10% neutral-buffered formalin at room temperature overnight. The bone was demineralized in Decal Stat solution (Decal Chemical, Suffern, N.Y.) for 3 hr at room temperature, embedded in paraffin and sectioned to 4 μm at Tissue Microarray Facility of Johns Hopkins University. The formalin-fixed normal and fibrotic rat livers were a kind gift from Jie Yan and Yuzhan Kang at National University of Singapore. The tissues were sectioned to 10 μm thickness on glass slides and stained by Masson trichrome by the Reference Histology Laboratory, Johns Hopkins Medical Institutions.
Immunohistochemistry. Frozen fixed tissue slides were allowed to equilibrate to room temperature and dried under air flow. The tissue sections were permeabilized by cold methanol at −20° C. for 10 min, and incubated in 1×PBS solution. The paraffin embedded bone sections were de-paraffinized by two cycles of 5 min xylene wash, two cycles of 5 min 100% ethanol wash, and two cycles of 5 min 95% ethanol wash followed by soaking in 1×PBS solutions. […]

Substance: CF-GGG-(GPO)9 [CF(GPO)9]
- staining of fibronectin and laminin bands [1]: no affinity to fibronectin and laminin
- staining of fixed mouse skin and cornea sections [2]: effectively stained
- staining of demineralized, fixed, paraffin embedded mouse tibia bone sections ([2]; data not shown): strong

Substance: CF-GGG-PGOGPGPOPOGOGOPPGOOPGGOOPPG [CF^SG9P9O9, reference compound]
- staining of fixed mouse skin and cornea sections [2]: no discernible binding
